# Experimental data reported in patent publication EP3335764A1, “A STRAIN OF A[…] APPLICATIONS THEREOF” (Infinitec Activos S.L., priority 2016, dated 2018).
# Test system: Prostaglandin E2 (PGE2)
# Test: Anti-inflammatory activity: PGE2 quantification by ELISA in cells stimulated by IL-1α
# Type: cell-based
# Settings: IL-1α (5 pM), Cycloheximide 100 µg/ml
# Method: When cells are stimulated by an inflammatory agent PGE2 is synthesized de novo and released into the extracellular space. Thus quantification of PGE2 is used to asses the anti-inflammatory activity products.
# In the present example the anti-inflammatory activity of the extract of example 2 was determined by quantification of PGE2 in cells stimulated by IL-1α using a kit for an enzyme-linked immunosorbent assay (ELISA). The kit used was Prostaglandin E2 EIA kit Item n° 514010 from Cayman Chemical.
# Prostaglandin E2 assay is based on competition between the PGE^2 to be determined and a fixed amount of added PGE2-acetylcholinesterase (AChE) conjugate (PGE2 tracer) for a limited amount of PGE2 monoclonal antibody. The amount of PGE2 tracer able to bind the PGE2 monoclonal antibody will be inversely proportional to the concentration of PGE2 in the well. Both the antibody-PGE2 complex and then antibody-PGE2 tracer complex bind to polyclonal goat anti-mouse IgG previously bound to the well. Then the plate is washed to remove any unbound reagent and Ellman's reagent is added to determine the amount of AChE bound to the well. […] The intensity of this color, determined by UV-Vis spectrophotometry, is proportional to the amount of PGE2 tracer bound […], which is inversely proportional to the amount of PGE2 present in the free well during incubation.
compound,measurement,value
C[C@@H]1C[C@@H]([C@H](O)CC2CC(=O)NC(=O)C2)C(=O)[C@@H](C)C1 [Cycloheximide],PGE2,31.85 pg/mL
same,inhibition at 100 µg/mL,97.6%
